In paper PMC6934184, “Selective DNA-PKcs inhibition extends the therapeutic index of localized radiotherapy and chemotherapy” (The Journal of Clinical Investigation, 2019):

Biological target: T1, CSNK2A2 (CK2 alpha 2) (Homo sapiens, UniProt P19784)
T1 construct: purchased Thermo Fisher Scientific (Life Technologies) SelectScreen
Assay: SelectScreen Z'LYTE
Format: biochemical
How it was run: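 NU5455 was profiled across the SelectScreen Broad panel of kinase activity and binding assays. Z'LYTE reactions such as CSF1R ran at apparent Km ATP, while the Adapta CAMK1 assay used ATP listed as 10. Values are given as percent.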

T1 sequence (P19784 whole entry): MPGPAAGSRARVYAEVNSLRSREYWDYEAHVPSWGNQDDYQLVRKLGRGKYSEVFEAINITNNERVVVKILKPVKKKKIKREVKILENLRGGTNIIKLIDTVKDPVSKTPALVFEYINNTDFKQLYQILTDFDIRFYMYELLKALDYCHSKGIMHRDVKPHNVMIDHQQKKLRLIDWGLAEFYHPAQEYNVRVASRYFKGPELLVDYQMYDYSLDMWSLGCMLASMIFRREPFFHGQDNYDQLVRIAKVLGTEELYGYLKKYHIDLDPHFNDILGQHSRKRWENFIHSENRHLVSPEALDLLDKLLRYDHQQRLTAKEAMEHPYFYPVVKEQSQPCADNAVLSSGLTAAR

## CN(C(=O)CN1CCOCC1)c1ccc2sc3c(-c4cccc5c(=O)cc(N6CC7CCC(C6)O7)oc45)cccc3c2c1 [NU5455]
  inhibition at 1 µM: 8.7%
